Assay results from patent publication US9732311B2, “Alcoholic compositions having a lowered risk of acetaldehydemia” (Deuteria Beverages, LLC, priority 2009, dated 2017).
Like-named read-outs stand apart in the source and are kept apart here.

Key:
[1] = tested on: horse liver ALDH; settings: literature (Feldman and Weiner 1972); cited from earlier work
[2] = tested on: sheep liver ALDH; settings: literature (Hart and Dickinson 1978); cited from earlier work
[3] = oral
Procedure: The subject was a person, 154 kg, with no known abnormalities of ethanol metabolism. Experiments were conducted after an overnight fast. 1,1-Dideuterioethanol, 99 atom % D (CDN Isotopes; Quebec, Canada) (70 mL) was diluted to 500 mL with orange juice, and the resulting beverage was consumed by the subject over the course of five minutes. The mouth and palate were rinsed with orange juice, and data points were then obtained, in triplicate, every 10 minutes with a commercial breath analyzer (AlcoHAWK™ Pro, Q3 Innovations Inc., Independence, Iowa, U.S.A.) The control experiment employed 175 mL of commercial vodka (80 proof; 40% ethanol) but was otherwise identical.
Each data point in the FIGURE is the average of the three measurements taken at each time point.

## [2H]C(=O)CC [propionaldehyde-1-d]
[1]
  deuterium isotope effect: no isotope effect

## [2H]C(C)=O [acetaldehyde-1-d]
[2]
  deuterium isotope effect: no isotope effect

## [2H]C([2H])(C)O [deuterated ethanol, 1,1-Dideuterioethanol]
[3]; human subject, FIG. 1
  absorption relative to ethanol having a natural isotopic abundance: substantially retarded
  areas under the curves of blood level vs time, deuterated vs ordinary ethanol: substantially equivalent
  rate of clearance relative to ethanol having a natural isotopic abundance: reduced
[3]; human subject, after overnight fast, 70 mL diluted to 500 mL with orange juice
  time after ingestion at which peak blood concentrations of ethanol are reached: 1 to 2 h
[3]; human subject, relative to non-deuterated ethanol
  reduction of peak blood concentration: 15-20%

## CCO [ethanol, reference compound]
[3]; human, ordinary ethanol (normally)
  time after ingestion at which peak blood concentrations of ethanol are reached: 0.333 to 0.5 h
